The values below come from patent publication US12708622B2, “Methods of treating cancer and inhibiting TYK2 and MEK” (Washington University, priority 2021, dated 2026).

In data set [1] the test system is 2-009 cells. Nature of the data set: IncuCyte assay with YOYO-1 green fluorescence (apoptosis). The note with it: over 3 days. It is filed as cell-based. The method, then: (§1) Cell confluence and apoptosis were analyzed by IncuCyte live cell imaging assays. Drug combination synergy was calculated using Synergy Finder software.
In data set [2] the test system is 2-009 cells. Nature of the data set: IncuCyte live cell imaging assay (cell confluence). It is filed as cell-based. The note with it: over 3 days. The method, then: as §1
Data set [3] deals with JW23.3 cells. Nature of the data set: IncuCyte cell death assay with YOYO-1 green fluorescent dye (apoptosis). The note with it: 72 hours.
Description: (§2) To gain further insight into the role of TYK2 in MPNST, the effect of pharmacologic inhibition of TYK2 was examined using IncuCyte Live Cell Imaging experiments for proliferation and cell death assay with YOYO-1 green fluorescent dye.
(§3) MPNST cell lines were plated at 2500 cells/well in 96 well plates in growth media and incubated overnight. […] Cells were imaged every 1-2 hours by IncuCyte Zoom Live-Cell Analysis System (Essen Bioscience, Sartorius, Ann Arbor, MI). Cell proliferation was determined as percent confluence from phase images and was analyzed by IncuCyte image analysis software (Sartorius). For cell death assays, 50 nmol/L YOYO-1 green fluorescent dye (Thermo Fisher) was added to treatment medium, and apoptosis was calculated as green objects normalized to the confluency factor and the initial timepoint. IC50 values were calculated in GraphPad Prism version 9 (GraphPad Software, San Diego, CA).
The subject of data set [4] is JW23.3 cells. Nature of the data set: IncuCyte live cell proliferation assay (percent cell confluence). In kind it is cell-based, murine.
Description: as §2, §3
Data set [5] concerns WU-356 cells. The description is as above. In kind it is cell-based, human. To be noted: 3 days.
Description: as §2
(§4) MPNST cell lines were plated at 2500 cells/well in 96 well plates in growth media and incubated overnight. […] Cells were imaged every 1-2 hours by IncuCyte Zoom Live-Cell Analysis System (Essen Bioscience, Sartorius, Ann Arbor, MI). Cell proliferation was determined as percent confluence from phase images and was analyzed by IncuCyte image analysis software (Sartorius). […] IC50 values were calculated in GraphPad Prism version 9 (GraphPad Software, San Diego, CA).
For data set [6], the system named is JAK1-3. To be noted: at clinically relevant doses; cited from earlier work.
The test system of data set [7] is JW23.3 MPNST xenograft tumors. Nature of the data set: MPNST tumor growth in immunocompetent C57BL6 mice. To be noted: JW23.3 in immunocompetent mice; daily oral gavage; 1.5 mg/kg deucravacitinib, 30 mg/kg mirdametinib (FIG. 10 legend).
Data set [8] relates to WU-386 MPNST xenograft. Briefly: MPNST xenograft tumor growth in NRG mice. To be noted: WU-386 in NRG mice; daily oral gavage; single agents.
The subject of data set [9] is JH-2-002 cells. Nature of the data set: IncuCyte live cell proliferation assay (percent cell confluence).
Description: as §2, §3
Data set [10] has as its system WU-386 cells. The description is as above. The note with it: 3 days. It is filed as cell-based, human.
Description: as §2, §4
The nature of data set [11]: Mouse body weight and health in the MPNST tumor models. The note with it: in vivo. Details: species or system mice. The protocol: . […] Mouse body weight, an indicator of health, was measured 2-3 times per week.
Data set [12] relates to JW23.3, JH-2-002, WU-356 and WU-386 cells. Briefly: IncuCyte cell confluence IC50 across the MPNST cell line panel. It is filed as cell-based, murine and human. The note with it: 72 h, 3 days, read-out: IC50 for inhibition of cell confluence, range over cell lines.
Description: as §4

pIC50: −log10 of the molar value.

`N#Cc1cc(F)c(C(=O)Nc2ccnc(NC(=O)C3C[C@H]3F)c2)c(Cl)c1` (stereo partly drawn) [TC-JL-37]: the apoptosis result in [1] and in [3] was “increased apoptosis” throughout. Further, the cell confluence entry in [2] is recorded as “decreased cell confluence”. In addition, the percent cell confluence entry in [4] (JW23.3 cells, 72 hours) is on record as “decreased cell confluence”.

As usually defined, the pIC50 is −log10 of the IC50, conventionally taken in molar units. As to `[2H]C([2H])([2H])NC(=O)c1nnc(NC(=O)C2CC2)cc1Nc1cccc(-c2ncn(C)n2)c1OC` [deucravacitinib], the “proliferation (cell confluence)” value in data set [5] (WU-356 cells) and in data set [10] (WU-386 cells) was “inhibited proliferation” throughout. Also, the “block of JAK1-3” value in [6] was “does not block JAK1-3 at clinically relevant doses”. Besides, the “tumor volume relative to vehicle control” value in [7] was “nearly half the volume of vehicle control”. Besides, in data set [8], the tumor size entry is given as “non-significant trend toward decreased tumor size”. Further, in [9] (JH-2-002 cells, 72 hours), the “percent cell confluence / proliferation” value is “inhibited proliferation”. Further, the pIC50 in data set [4] (Mus musculus, 72 h, read-out: IC50 for inhibition of cell confluence) is 5.17.

Regarding `O=C(NOC[C@H](O)CO)c1ccc(F)c(F)c1Nc1ccc(I)cc1F` [mirdametinib], the pIC50 is 5.88 in data set [5] (Homo sapiens, 72 h, WU-356 MPNST cell line, IncuCyte, read-out: IC50 for inhibition of cell confluence); 5.88 to 6.66 in data set [12]; 6.66 in [9] (Homo sapiens, 72 h, read-out: IC50 for inhibition of cell confluence); 5.97 in [10] (Homo sapiens, 72 h, WU-386 MPNST cell line, IncuCyte, read-out: IC50 for inhibition of cell confluence). Moreover, the “mouse body weight / adverse health effects” value in [11] was “did not significantly decrease mouse body weight”. Further, in [7], the “tumor volume relative to vehicle control” value was “nearly half the volume of vehicle control”. Besides, the tumor size entry in [8] is listed as “non-significant trend toward decreased tumor size”.
